# Reference: ChEMBL document CHEMBL5316313, “Discovery of Novel 3-Phenylpiperidine Derivatives Targeting the β-Catenin/B-Cell Lymphoma 9 Interaction as a Single Agent and in Combination with the Anti-PD-1 Antibody for the Treatment of Colorectal Cancer” (J Med Chem, 2023)
# Activity calls are given as the source filed them. The rule behind the calls is not given here.
# What was measured:
# HEK293 = assay: Induction of apoptosis in Wnt-independent human HEK293 cells assessed as late apoptotic cells at 10 uM incubated for 24 hrs by Annexin V-Alexa Fluor 647/PI staining based flow cytomtery (Rvb=10.5%); format: functional
# HCT-116 = assay: Induction of apoptosis in Wnt-dependent human HCT-116 cells assessed as viable cells at 10 uM incubated for 24 hrs by Annexin V-Alexa Fluor 647/PI staining based flow cytomtery (Rvb=69.5%); format: functional; conditions: read-out: Activity
# CT26 [1] = assay: Induction of apoptosis in Wnt-dependent mouse CT26 cells assessed as late apoptotic cells at 10 uM incubated for 24 hrs by Annexin V-Alexa Fluor 647/PI staining based flow cytomtery (Rvb=9.96%); format: functional
# CT26 [2] = assay: Induction of apoptosis in Wnt-dependent mouse CT26 cells assessed as viable cells at 20 uM incubated for 24 hrs by Annexin V-Alexa Fluor 647/PI staining based flow cytomtery (Rvb=70.7%); format: functional; conditions: read-out: Activity
# [3] = Toxicity in BALB/c mouse xenografted with mouse CT26 cells assessed as pathological changes in liver at 30 mg/kg, ip QD by hematoxylin and eosin staining based microscopic analysis; format: organism-based; conditions: in vivo
# [4] = Toxicity in BALB/c mouse xenografted with mouse CT26 cells assessed as pathological changes in spleen at 30 mg/kg, ip QD by hematoxylin and eosin staining based microscopic analysis; format: organism-based; conditions: in vivo
# CT26 [5] = assay: Synergistic antitumor activity in mouse CT26 cells xenografted in BALB/c mouse assessed as increase in IFNgamma-positive CD8+ T cell infiltration into tumor at 30 mg/kg, ip QD in presence of anti-PD-1 antibody cotreatment at 10 mg/kg,ip BIW by flow cytometry; format: functional, organism-based
# [6] = target: T1, beta-catenin-B-cell lymphoma 9 protein complex (Homo sapiens, UniProt P35222); assay: Inhibition of beta-catenin/BCL9 protein-protein interaction in Wnt-dependent human HCT-116 cells assessed as reduction in Axin2 expression level by qRT-PCR assay; format: cell-based
# T1 sequence (P35222 whole entry): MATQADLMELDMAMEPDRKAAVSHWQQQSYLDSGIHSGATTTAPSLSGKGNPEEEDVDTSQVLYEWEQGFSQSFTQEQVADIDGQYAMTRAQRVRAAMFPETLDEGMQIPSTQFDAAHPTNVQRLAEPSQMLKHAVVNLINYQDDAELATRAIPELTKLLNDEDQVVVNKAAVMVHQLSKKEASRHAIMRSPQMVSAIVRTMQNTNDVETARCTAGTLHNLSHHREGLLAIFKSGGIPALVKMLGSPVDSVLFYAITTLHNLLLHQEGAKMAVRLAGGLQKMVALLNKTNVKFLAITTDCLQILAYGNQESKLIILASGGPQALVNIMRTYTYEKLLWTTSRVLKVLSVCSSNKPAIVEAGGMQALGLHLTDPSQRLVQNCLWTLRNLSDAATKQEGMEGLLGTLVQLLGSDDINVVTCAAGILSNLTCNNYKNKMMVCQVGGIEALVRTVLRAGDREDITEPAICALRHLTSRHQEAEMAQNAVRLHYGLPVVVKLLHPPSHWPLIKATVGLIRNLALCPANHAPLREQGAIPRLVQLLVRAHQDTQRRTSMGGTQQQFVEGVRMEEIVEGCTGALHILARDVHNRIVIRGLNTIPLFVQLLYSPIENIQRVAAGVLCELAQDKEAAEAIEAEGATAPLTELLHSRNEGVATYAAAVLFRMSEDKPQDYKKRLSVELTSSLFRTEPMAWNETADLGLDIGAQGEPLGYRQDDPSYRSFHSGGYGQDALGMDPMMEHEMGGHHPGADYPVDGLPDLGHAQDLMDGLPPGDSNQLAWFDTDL
# T1 sequence (O00512 whole entry): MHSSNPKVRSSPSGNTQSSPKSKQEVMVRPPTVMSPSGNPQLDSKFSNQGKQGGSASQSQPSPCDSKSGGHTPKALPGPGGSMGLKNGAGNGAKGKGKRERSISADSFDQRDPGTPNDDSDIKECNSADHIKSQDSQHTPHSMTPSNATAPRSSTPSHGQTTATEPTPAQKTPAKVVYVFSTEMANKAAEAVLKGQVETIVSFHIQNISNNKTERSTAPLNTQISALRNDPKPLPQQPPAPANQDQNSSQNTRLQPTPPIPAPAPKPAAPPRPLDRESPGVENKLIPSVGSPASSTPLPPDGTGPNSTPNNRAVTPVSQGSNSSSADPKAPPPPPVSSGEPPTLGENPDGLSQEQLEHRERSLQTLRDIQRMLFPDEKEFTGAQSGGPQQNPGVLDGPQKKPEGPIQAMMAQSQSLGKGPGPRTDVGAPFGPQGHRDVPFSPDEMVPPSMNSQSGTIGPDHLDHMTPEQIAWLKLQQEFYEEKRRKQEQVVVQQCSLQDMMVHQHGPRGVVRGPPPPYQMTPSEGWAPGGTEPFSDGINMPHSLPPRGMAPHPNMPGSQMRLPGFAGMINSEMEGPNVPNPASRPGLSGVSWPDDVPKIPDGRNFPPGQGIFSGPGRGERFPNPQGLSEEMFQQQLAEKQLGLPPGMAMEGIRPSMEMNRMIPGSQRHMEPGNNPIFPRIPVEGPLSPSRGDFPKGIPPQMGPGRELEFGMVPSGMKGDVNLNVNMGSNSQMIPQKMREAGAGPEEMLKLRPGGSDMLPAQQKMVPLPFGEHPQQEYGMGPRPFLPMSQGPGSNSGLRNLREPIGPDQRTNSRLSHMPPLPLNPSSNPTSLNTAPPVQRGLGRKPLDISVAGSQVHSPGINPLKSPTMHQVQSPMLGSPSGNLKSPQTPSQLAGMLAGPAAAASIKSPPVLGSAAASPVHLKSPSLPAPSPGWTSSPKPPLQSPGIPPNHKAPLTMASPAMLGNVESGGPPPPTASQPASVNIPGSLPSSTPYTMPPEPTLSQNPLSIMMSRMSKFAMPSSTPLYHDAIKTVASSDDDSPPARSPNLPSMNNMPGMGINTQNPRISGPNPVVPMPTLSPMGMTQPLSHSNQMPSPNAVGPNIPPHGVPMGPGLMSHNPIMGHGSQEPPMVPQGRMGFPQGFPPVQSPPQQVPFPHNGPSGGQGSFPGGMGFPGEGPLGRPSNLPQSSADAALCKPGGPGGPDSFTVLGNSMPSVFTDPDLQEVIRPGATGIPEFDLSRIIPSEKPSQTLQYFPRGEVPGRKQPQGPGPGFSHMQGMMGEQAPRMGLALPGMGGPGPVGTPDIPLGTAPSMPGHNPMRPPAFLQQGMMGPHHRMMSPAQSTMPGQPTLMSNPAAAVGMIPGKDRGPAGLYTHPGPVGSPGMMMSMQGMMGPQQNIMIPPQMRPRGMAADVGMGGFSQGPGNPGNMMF
# [7] = target: T1, beta-catenin-B-cell lymphoma 9 protein complex; assay: Inhibition of beta-catenin/BCL9 protein-protein interaction in Wnt-dependent human SW480 cells assessed as reduction in Axin2 expression level by qRT-PCR assay; format: cell-based
# [8] = target: T1, beta-catenin-B-cell lymphoma 9 protein complex; assay: Inhibition of beta-catenin/BCL9 protein-protein interaction in Wnt-independent human HEK293 cells assessed as reduction in Axin2 expression level by qRT-PCR assay; format: cell-based
IC50 [6] [µM],IC50 [7] [µM],IC50 [8] [µM],SMILES,Activity (HEK293) [%],viability at 10 µM (HCT-116) [%],Activity (CT26 [1]) [%],viability at 20 µM (CT26 [2]) [%],Activity [3],Activity [4],Activity (CT26 [5])
,,,CC(C)c1ccc(-c2cccc(S(=O)(=O)N3CCCC(c4cccc(OC(C)(C)C(=O)NS(=O)(=O)c5ccc(C(F)(F)F)cc5)c4)C3)c2)cc1 (stereo not given),14.9,59.8,30.2,16,Non-Toxic,Non-Toxic,Active
2.69,10.6,38.3,O=C1[C@H](Cc2ccc(O)cc2)N2C(=O)CCN(C(=O)NCc3ccccc3)[C@H]2CN1Cc1cccc2ccccc12,,,,,,,
